Source: PubChem BioAssay AID1963986 (Molecular Pharmacology Branch, DTP, NCI, 2024)

Tested on: 171881-019-R-J1-PDC tumor spheroid viability
Test: Anticancer human tumor 171881-019-R-J1-PDC patient-derived invasive breast carcinoma cell line growth inhibition [PI3K]
Conditions: spheroids with HUVEC and MSC; for IC50: curve of first compound; for viability, T/C: stronger effect = lower value
Method in brief: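 Multi-cell spheroids combine tumor cells with HUVEC and human MSCs, treated with targeted agents alone or with inavolisib, alpelisib, duvelisib or copanlisib. Concentrations fall in half-log steps from at or near clinical Cmax, or from 10 microM where Cmax is unknown; viability read-out.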

[1] = second compound 0.0316 µM, first compound 0.0316 µM
[2] = second compound 0.0316 µM, first compound 0.1 µM
[3] = second compound 0.1 µM, first compound 0.0316 µM
[4] = second compound 0.1 µM, first compound 0.1 µM
[5] = second compound 0.316 µM, first compound 0.0316 µM
[6] = second compound 0.316 µM, first compound 0.1 µM
[7] = second compound 1 µM, first compound 0.0316 µM
[8] = second compound 1 µM, first compound 0.1 µM
[9] = second compound 3.16 µM, first compound 0.0316 µM
[10] = second compound 3.16 µM, first compound 0.1 µM
[11] = second compound 10 µM, first compound 0.0316 µM
[12] = second compound 10 µM, first compound 0.1 µM
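Further: spheroids exposed to compound for 7 days before viability read.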
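Wherever viability, T/C is given: 100% = DMSO vehicle-treated spheroids.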

SMILES: CC(=O)c1c(C)c2cnc(Nc3ccc(N4CCNCC4)cn3)nc2n(C2CCCC2)c1=O + CC(Nc1ncnc2nc[nH]c12)c1cc2cccc(Cl)c2c(=O)n1-c1ccccc1
- IC50 (second compound 0.0316 µM): > 0.1 µM
- IC50 (second compound 0.1 µM): > 0.1 µM
- IC50 (second compound 0.316 µM): > 0.1 µM
- IC50 (second compound 1 µM): > 0.1 µM
- IC50 (second compound 3.16 µM): > 0.1 µM
- IC50 (second compound 10 µM): > 0.1 µM
- viability, T/C (second compound 0.0316 µM, first compound 0.000316 µM): 91.9%
- viability, T/C (second compound 0.0316 µM, first compound 0.001 µM): 88%
- viability, T/C (second compound 0.0316 µM, first compound 0.00316 µM): 93%
- viability, T/C (second compound 0.0316 µM, first compound 0.01 µM): 90.6%
- viability, T/C [1]: 102%
- viability, T/C [2]: 92.9%
- viability, T/C (second compound 0.1 µM, first compound 0.000316 µM): 99.9%
- viability, T/C (second compound 0.1 µM, first compound 0.001 µM): 96.8%
- viability, T/C (second compound 0.1 µM, first compound 0.00316 µM): 98.3%
- viability, T/C (second compound 0.1 µM, first compound 0.01 µM): 91.7%
- viability, T/C [3]: 97.6%
- viability, T/C [4]: 88.7%
- viability, T/C (second compound 0.316 µM, first compound 0.000316 µM): 91%
- viability, T/C (second compound 0.316 µM, first compound 0.001 µM): 88.5%
- viability, T/C (second compound 0.316 µM, first compound 0.00316 µM): 96%
- viability, T/C (second compound 0.316 µM, first compound 0.01 µM): 107%
- viability, T/C [5]: 106%
- viability, T/C [6]: 87.8%
- viability, T/C (second compound 1 µM, first compound 0.000316 µM): 104%
- viability, T/C (second compound 1 µM, first compound 0.001 µM): 87.6%
- viability, T/C (second compound 1 µM, first compound 0.00316 µM): 100%
- viability, T/C (second compound 1 µM, first compound 0.01 µM): 94.9%
- viability, T/C [7]: 102%
- viability, T/C [8]: 82.2%
- viability, T/C (second compound 3.16 µM, first compound 0.000316 µM): 94.2%
- viability, T/C (second compound 3.16 µM, first compound 0.001 µM): 90.3%
- viability, T/C (second compound 3.16 µM, first compound 0.00316 µM): 91.2%
- viability, T/C (second compound 3.16 µM, first compound 0.01 µM): 93.2%
- viability, T/C [9]: 103%
- viability, T/C [10]: 79.1%
- viability, T/C (second compound 10 µM, first compound 0.000316 µM): 62.4%
- viability, T/C (second compound 10 µM, first compound 0.001 µM): 60.1%
- viability, T/C (second compound 10 µM, first compound 0.00316 µM): 59.1%
- viability, T/C (second compound 10 µM, first compound 0.01 µM): 63.8%
- viability, T/C [11]: 64.9%
- viability, T/C [12]: 56.9%

SMILES: CCCS(=O)(=O)Nc1ccc(F)c(C(=O)c2c[nH]c3ncc(-c4ccc(Cl)cc4)cc23)c1F + CC(Nc1ncnc2nc[nH]c12)c1cc2cccc(Cl)c2c(=O)n1-c1ccccc1
- IC50 (second compound 0.0316 µM): 5.73 µM
- IC50 (second compound 0.1 µM): 5.45 µM
- IC50 (second compound 0.316 µM): 5.38 µM
- IC50 (second compound 1 µM): 6 µM
- IC50 (second compound 3.16 µM): 6.06 µM
- IC50 (second compound 10 µM): 4.95 µM
- viability, T/C [1]: 90.8%
- viability, T/C [2]: 87.2%
- viability, T/C (second compound 0.0316 µM, first compound 0.316 µM): 97.2%
- viability, T/C (second compound 0.0316 µM, first compound 1 µM): 84.1%
- viability, T/C (second compound 0.0316 µM, first compound 3.16 µM): 92.3%
- viability, T/C (second compound 0.0316 µM, first compound 10 µM): 12.2%
- viability, T/C [3]: 98.7%
- viability, T/C [4]: 81.3%
- viability, T/C (second compound 0.1 µM, first compound 0.316 µM): 95%
- viability, T/C (second compound 0.1 µM, first compound 1 µM): 91.4%
- viability, T/C (second compound 0.1 µM, first compound 3.16 µM): 83.3%
- viability, T/C (second compound 0.1 µM, first compound 10 µM): 12.8%
- viability, T/C [5]: 87.4%
- viability, T/C [6]: 89.1%
- viability, T/C (second compound 0.316 µM, first compound 0.316 µM): 103%
- viability, T/C (second compound 0.316 µM, first compound 1 µM): 101%
- viability, T/C (second compound 0.316 µM, first compound 3.16 µM): 83.2%
- viability, T/C (second compound 0.316 µM, first compound 10 µM): 11.3%
- viability, T/C [7]: 95.1%
- viability, T/C [8]: 107%
- viability, T/C (second compound 1 µM, first compound 0.316 µM): 106%
- viability, T/C (second compound 1 µM, first compound 1 µM): 105%
- viability, T/C (second compound 1 µM, first compound 3.16 µM): 97.7%
- viability, T/C (second compound 1 µM, first compound 10 µM): 11.9%
- viability, T/C [9]: 90.9%
- viability, T/C [10]: 97%
- viability, T/C (second compound 3.16 µM, first compound 0.316 µM): 104%
- viability, T/C (second compound 3.16 µM, first compound 1 µM): 121%
- viability, T/C (second compound 3.16 µM, first compound 3.16 µM): 103%
- viability, T/C (second compound 3.16 µM, first compound 10 µM): 9.5%
- viability, T/C [11]: 67.8%
- viability, T/C [12]: 70.7%
- viability, T/C (second compound 10 µM, first compound 0.316 µM): 77.2%
- viability, T/C (second compound 10 µM, first compound 1 µM): 90.8%
- viability, T/C (second compound 10 µM, first compound 3.16 µM): 82.2%
- viability, T/C (second compound 10 µM, first compound 10 µM): 6.77%
